The values that follow come from patent publication US7915448B2, “Substituted sulfonylaminoarylmethyl cyclopropanecarboxamide as VR1 receptor antagonists” (Pfizer Inc., priority 2005, dated 2011).

The nature of series [1]: Half-life in Human Liver Microsomes (HLM). To be noted: human, human liver microsomes (HL101), pH 7.4. (In general: Liver microsomes are vesicles of endoplasmic reticulum, rich in cytochrome P450 enzymes.)
Procedure: Test compounds (1 μM) were incubated with 3.3 mM MgCl2 and 0.78 mg/mL HLM (HL101) in 100 mM potassium phosphate buffer (pH 7.4) at 37° C. on the 96-deep well plate. The reaction mixture was split into two groups, a non-P450 and a P450 group. NADPH was only added to the reaction mixture of the P450 group. An aliquot of samples of P450 group was collected at 0, 10, 30, and 60 min time point, where 0 min time point indicated the time when NADPH was added into the reaction mixture of P450 group. An aliquot of samples of non-P450 group was collected at −10 and 65 min time point. Collected aliquots were extracted with acetonitrile solution containing an internal standard. The precipitated protein was spun down in centrifuge (2000 rpm, 15 min). The compound concentration in supernatant was measured by LC/MS/MS system.
The half-life value was obtained by plotting the natural logarithm of the peak area ratio of compounds/internal standard versus time. The slope of the line of best fit through the points yields the rate of metabolism (k).
Series [2] has as its target T1, human VR1 receptors (Homo sapiens, UniProt Q8NER1).
T1 construct: host or cells: cells highly expressing human VR1; cell type not specified
Briefly: Human VR1 antagonist assay (Ca2+ imaging). Format: cell-based. Conditions: cells expressing human VR1, fura-2 Ca2+ imaging, FDSS 6000; capsaicin (300 nM) or acid (pH5.8) stimulation, table does not say which. An excerpt:
Human VR1 Antagonist Assay
VR1 antagonistic activity can be determined by the Ca^2+ imaging assay using human VR1 highly expressing cells. The cells that highly express human VR1 receptors are obtainable from several different conventional methods. The one standard method is cloning from human Dorsal Root Ganglion (DRG) or kidney according to the methods such as described in the journal article; Nature, 389, pp 816-824, 1997. Alternatively VR1 receptors highly expressing human keratinocytes are also known and published in the journal article (Biochemical and Biophysical Research Communications, 291, pp 124-129, 2002). […] Further more, the method to up regulate human VR1 gene, which is usually a silent gene or don't produce detectable level of VR1 receptors, is also available to obtain propriety cells. Such genetic modification method was described in detail; Nat. Biotechnol., 19, pp 440-445, 2001.
The cells that express human VR1 receptors were maintained in culture flask at 37° C. in an environment containing 5% CO2 until use in the assay. The intracellular Ca^2+ imaging assay to determine VR1 antagonistic activities were done by following procedures.
The culture medium was removed from the flask and fura-2/AM fluorescent calcium indicator was added to the flask at a concentration of 5 μM in the medium. The flask was placed in CO2 incubator and incubated for 1 hour. Then the cells expressing the human VR1 receptors were detached from the flask follow by washing with phosphate buffer saline, PBS(−) and re-suspended in assay buffer. The 80 μl of aliquot of cell suspension (3.75×10^5 cells/ml) was added to the assay plate and the cells were spun down by centrifuge (950 rpm, 20° C., 3 minutes).
Capsaicin Stimulation Assay:
The capsaicin-induced changes in the intracellular calcium concentration were monitored using FDSS 6000 (Hamamatsu Photonics, Japan), a fluorometric imaging system. The cell suspension in Krebs-Ringer HEPES (KRH) buffer (115 mM NaCl, 5.4 mM KCl, 1 mM MgSO4, 1.8 mM CaCl2, 11 mM D-Glucose, 25 mM HEPES, 0.96 mM Na2HPO4, pH 7.3) were pre-incubated with varying concentrations of the test compounds or KRH buffer (buffer control) for 15 minutes at room temperature under the dark condition. Then capsaicin solution, which gives 300 nM in assay mixture, was automatically added to the assay plate by the FDSS 6000.
The Acid-induced changes in the intracellular calcium concentration were monitored using FDSS 6000 (Hamamatsu Photonics, Japan), a fluorometric imaging system. The cell suspension in resting buffer (HBSS supplemented with 10 mM HEPES, pH 7.4) were pre-incubated with varying concentrations of the test compounds or resting buffer (buffer control) for 15 minutes at room temperature under the dark condition. The cells were automatically added the stimulating solution (HBSS supplemented with MES, final assay buffer pH5.8) by the FDSS 6000.
Determination of Antagonist Activity
The monitoring of the changes in the fluorescence signals (λex=340 nm/380 nm, λem=510-520 nm) was initiated at 1 minute prior to the addition of capsaicin solution or acidic buffer and continued for 5 minute.

Some results are limits rather than exact numbers.

T1 sequence (Q8NER1 whole entry): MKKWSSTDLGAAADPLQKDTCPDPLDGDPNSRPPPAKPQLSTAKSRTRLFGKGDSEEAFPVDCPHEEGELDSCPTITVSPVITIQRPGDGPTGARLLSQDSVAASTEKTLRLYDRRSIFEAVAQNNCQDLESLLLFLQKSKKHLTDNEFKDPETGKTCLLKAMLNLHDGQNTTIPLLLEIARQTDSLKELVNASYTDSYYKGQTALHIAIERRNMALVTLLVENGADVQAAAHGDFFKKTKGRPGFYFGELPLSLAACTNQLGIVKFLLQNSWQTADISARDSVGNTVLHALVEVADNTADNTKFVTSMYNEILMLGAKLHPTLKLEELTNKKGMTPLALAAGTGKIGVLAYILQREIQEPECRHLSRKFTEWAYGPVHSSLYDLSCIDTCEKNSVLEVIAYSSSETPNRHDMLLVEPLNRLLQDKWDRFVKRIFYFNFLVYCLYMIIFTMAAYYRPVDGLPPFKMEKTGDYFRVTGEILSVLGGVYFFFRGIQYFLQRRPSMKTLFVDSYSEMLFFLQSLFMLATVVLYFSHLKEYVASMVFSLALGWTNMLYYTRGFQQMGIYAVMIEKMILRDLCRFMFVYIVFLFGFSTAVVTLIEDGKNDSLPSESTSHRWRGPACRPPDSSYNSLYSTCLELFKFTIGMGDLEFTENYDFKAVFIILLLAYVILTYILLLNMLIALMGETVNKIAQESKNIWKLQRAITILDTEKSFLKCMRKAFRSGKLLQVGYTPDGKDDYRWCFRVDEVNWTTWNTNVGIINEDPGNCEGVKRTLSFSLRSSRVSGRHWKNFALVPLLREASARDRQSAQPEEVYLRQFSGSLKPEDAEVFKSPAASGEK

As usually defined, the half-life is the time in which the quantity being followed falls by half. Lower therefore signals rapid decline. For orientation: IC50 means the midpoint of a concentration-inhibition curve. A lower IC50 goes with greater potency in that assay. The compound `Cc1cc([C@@H](C)NC(=O)C2CC2(C)c2ccc(SC(F)(F)F)cc2)ccc1NS(C)(=O)=O` (stereo partly drawn) [Example 24, 2-Methyl-N-((1R)-1-{3-methyl-4-[(methylsulfonyl)amino]phenyl}ethyl)-2-{4-[(trifluoromethyl)thio]phenyl}cyclopropanecarboxamide] came in with a half-life at 1 μM in series [1] of 23 min. In addition, in series [2], the IC50 was 19.3 nM.
For `C[C@@H](NC(=O)C1CC1(C)c1ccc(SC(F)(F)F)cc1)c1ccc(NS(C)(=O)=O)c(CO)c1` (stereo partly shown) [Example 25], in series [1], the half-life at 1 μM was found to be 30 min. This compound registered a 50% inhibitory concentration (IC50) in series [2] of 26.6 nM.
`Cc1cc([C@@H](C)NC(=O)C2CC2(C)c2ccc(S(=O)(=O)C(F)(F)F)cc2)ccc1NS(C)(=O)=O` (stereo partly drawn) [Example 26, 2-Methyl-N-((1R)-1-{3-methyl-4-[(methylsulfonyl)amino]phenyl}ethyl)-2-{4-[(trifluoromethyl)sulfonyl]phenyl}cyclopropanecarboxamide] registered a half-life at 1 μM in series [1] of 38 min. Further, in series [2], half-maximal inhibition (IC50) required 78.3 nM.
Take `Cc1cc([C@@H](C)NC(=O)C2CC2(C)c2ccc(C(C)(C)C(F)(F)F)cc2)ccc1NS(C)(=O)=O` (stereo partly shown) [Example 27]: the half-life at 1 μM in series [1] was 25 min. The compound also gave an IC50 in series [2] of 7.83 nM.
Turning to `CC[C@@H](NC(=O)[C@H]1C[C@]1(C)c1ccc(C(F)(F)F)cc1)c1ccc(NS(C)(=O)=O)cc1` [Example 31, (1S,2S)-2-Methyl-N-((1R)-1-{4-[(methylsulfonyl)amino]phenyl}propyl)-2-[4-(trifluoromethyl)phenyl]cyclopropanecarboxamide], the half-life at 1 μM in series [1] was over 120 min. The same compound came in with a concentration for half-maximal inhibition (IC50) in series [2] of 192 nM.
Consider `CCc1cc([C@@H](C)NC(=O)[C@H]2C[C@]2(C)c2ccc(C(F)(F)F)cc2)ccc1NS(C)(=O)=O` [Example 32, (1S,2S)-N-((1R)-1-{3-Ethyl-4-[(methylsulfonyl)amino]phenyl}ethyl)-2-methyl-2-[4-(trifluoromethyl)phenyl]cyclopropanecarboxamide], for which the half-life at 1 μM in series [1] came to 10.8 min. This compound yielded an IC50 in series [2] of 0.934 nM.
For `CCc1cc([C@@H](C)NC(=O)[C@H]2C[C@@H]2c2ccc(C(F)(F)F)cc2)ccc1NS(C)(=O)=O` [Example 33, N-((1R)-1-{3-Ethyl-4-[(methylsulfonyl)amino]phenyl}ethyl)-2-[4-(trifluoromethyl)phenyl]cyclopropanecarboxamide], in that order: 39 min and 56.2 nM.
`CC[C@@H](NC(=O)[C@H]1C[C@]1(C)c1ccc(C(F)(F)F)cc1)c1ccc(NS(C)(=O)=O)c(C)c1` [Example 34, (1S,2S)-2-Methyl-N-((1R)-1-{3-methyl-4-[(methylsulfonyl)amino]phenyl}propyl)-2-[4-(trifluoromethyl)phenyl]cyclopropanecarboxamide]: the half-life at 1 μM in series [1] is over 120 min. Besides, the IC50 in series [2] is 4.72 nM.
In series [1], `Cc1cc([C@@H](C)NC(=O)[C@H]2C[C@]2(C)c2ccc(C(C)(C)C(F)(F)F)cc2)ncc1NS(C)(=O)=O` [Example 37, 2-Methyl-N-((1R)-1-{4-methyl-5-[(methylsulfonyl)amino]pyridin-2-yl}ethyl)-2-[4-(2,2,2-trifluoro-1,1-dimethylethyl)phenyl]cyclopropanecarboxamide] showed a half-life at 1 μM of 41 min. For the same compound, the IC50 in series [2] turned out to be 197 nM.
For `C[C@@H](NC(=O)[C@H]1C[C@@H]1c1cc(F)c(C(C)(C)C)c(F)c1)c1ccc(NS(C)(=O)=O)cc1` [Example 38, 2-[4-tert-Butyl-3,5-difluorophenyl]-N-((1R)-1-{4-[(methylsulfonyl)amino]phenyl}ethyl)cyclopropanecarboxamide], in that order: 40 min and 70.9 nM.
The compound `Cc1cc([C@@H](C)NC(=O)[C@H]2C[C@@H]2c2cc(F)c(C(C)(C)C)c(F)c2)ccc1NS(C)(=O)=O` [Example 39, 2-(4-tert-Butyl-3,5-difluorophenyl)-N-((1R)-1-{3-methyl-4-[(methylsulfonyl)amino]phenyl}ethyl)cyclopropanecarboxamide] registered a half-life at 1 μM in series [1] of 15 min. Moreover, in series [2], the IC50 is 9.12 nM.
In series [1], `C[C@@H](NC(=O)[C@H]1C[C@@H]1c1cc(F)c(C(C)(C)C)c(F)c1)c1ccc(NS(C)(=O)=O)c(F)c1` [Example 40, 2-(4-tert-Butyl-3,5-difluorophenyl)-N-((1R)-1-{3-fluoro-4-[(methylsulfonyl)amino]phenyl}ethyl)cyclopropanecarboxamide] had a half-life at 1 μM of 35 min. The 50% inhibitory concentration (IC50) in series [2] came out at 32.5 nM.
As for `Cc1cc([C@@H](C)NC(=O)[C@H]2C[C@]2(C)c2ccc(C(F)(F)F)cc2)c(F)cc1NS(C)(=O)=O` [Example 41, (1S,2S)-N-((1R)-1-{2-Fluoro-5-methyl-4-[(methylsulfonyl)amino]phenyl}ethyl)-2-methyl-2-[4-(trifluoromethyl)phenyl]cyclopropanecarboxamide], in series [1], the half-life at 1 μM turned out to be 21 min. The IC50 in series [2] stood at 0.234 nM.
Regarding `Cc1cc([C@@H](C)NC(=O)[C@H]2C[C@]2(C)c2ccc(C(F)(F)F)c(F)c2)c(F)cc1NS(C)(=O)=O` [Example 42, N-((1R)-1-{2-Fluoro-5-methyl-4-[(methylsulfonyl)amino]phenyl}ethyl)-2-[3-fluoro-4-(trifluoromethyl)phenyl]-2-methylcyclopropanecarboxamide], the half-life at 1 μM in series [1] was found to be 19.7 min. In addition, in series [2], the 50% inhibitory concentration (IC50) is 0.713 nM.
In the case of `C[C@@H](NC(=O)[C@H]1C[C@]1(C)c1cc(F)c(C(C)(C)C)c(F)c1)c1ccc(NS(C)(=O)=O)cc1` [Example 43, 2-(4-tert-Butyl-3,5-difluorophenyl)-2-methyl-N-((1R)-1-{4-[(methylsulfonyl)amino]phenyl}ethyl)cyclopropanecarboxamide], the half-life at 1 μM in series [1] is 41 min. Besides, the IC50 in series [2] came to 20.7 nM.
In series [1], `Cc1cc([C@@H](C)NC(=O)[C@H]2C[C@]2(C)c2cc(F)c(C(C)(C)C)c(F)c2)ccc1NS(C)(=O)=O` [Example 44, 2-(4-tert-Butyl-3,5-difluorophenyl)-2-methyl-N-((1R)-1-{3-methyl-4-[(methylsulfonyl)amino]phenyl}ethyl)cyclopropanecarboxamide] yielded a half-life at 1 μM of 29 min. Besides, the midpoint of inhibition in series [2], the IC50, lay at 2 nM.
Consider `C[C@@H](NC(=O)[C@H]1C[C@]1(C)c1cc(F)c(C(C)(C)C)c(F)c1)c1ccc(NS(C)(=O)=O)c(F)c1` [Example 45, 2-(4-tert-Butyl-3,5-difluorophenyl)-N-((1R)-1-{3-fluoro-4-[(methylsulfonyl)amino]phenyl}ethyl)-2-methylcyclopropanecarboxamide], for which, in series [1], the half-life at 1 μM came to 29 min. It took 5.84 nM to reach half-maximal inhibition in series [2] (IC50).
With `Cc1cc([C@@H](C)NC(=O)[C@H]2C[C@@H]2c2ccc(C(F)(F)F)nc2N2CCCC2)ccc1NS(C)(=O)=O` [Example 46, N-((1R)-1-{3-Methyl-4-[(methylsulfonyl)amino]phenyl}ethyl)-2-[2-pyrrolidin-1-yl-6-(trifluoromethyl)pyridin-3-yl]cyclopropanecarboxamide], in series [1], the half-life at 1 μM came out at 23 min. The 50% inhibitory concentration (IC50) in series [2] stood at 12.6 nM.
With `C[C@@H](NC(=O)[C@H]1C[C@@H]1c1ccc(C(F)(F)F)nc1N1CCCC1)c1ccc(NS(C)(=O)=O)c(CO)c1` [Example 47, N-((1R)-1-{3-(Hydroxymethyl)-4-[(methylsulfonyl)amino]phenyl}ethyl)-2-[2-pyrrolidin-1-yl-6-(trifluoromethyl)pyridin-3-yl]cyclopropanecarboxamide], in series [1], the half-life at 1 μM was 11 min. Also, the IC50 in series [2] stood at 7.64 nM.
For `C[C@@H](NC(=O)[C@H]1C[C@@H]1c1ccc(C(C)(C)C(F)(F)F)cc1)c1ccc(NS(C)(=O)=O)c(CO)c1` [Example 48, N-((1R)-1-{3-(Hydroxymethyl)-4-[(methylsulfonyl)amino]phenyl}ethyl)-2-[4-(2,2,2-trifluoro-1,1-dimethylethyl)phenyl]cyclopropanecarboxamide], in that order: 21 min and 203 nM.
